Results from patent US6596774B1, “Synthesis, lipid peroxidation and cytotoxic evaluation of 10-substituted 1,5-dichloro-9(10H)-anthracenone derivatives” (priority 2001, dated 2003).
Where a name gives a salt, the structure may show the parent alone.

What was measured:
[1] = test system: Iron-induced Lipid Peroxidation in Rat Brain Homogenates; assay: Assay of lipid peroxidation (TBA method); type: biochemical, Wistar rats; conditions: for Inhibition % (0.5 mM) / Inhibition (%) 0.005 mM / Inhibition (%) 0.05 mM / Inhibition (%) 5 mM: Mean ± S.E., n = 4; for Inhibition (%) 0.005 mM / efficiency in lipid peroxidation inhibition versus ascorbic acid, (+)-α-tocopherol and mitoxantrone (in words): 0.005 mM; for Inhibition % (0.5 mM) / inhibitory effect on lipid peroxidation compared to ascorbic acid, (+)-α-tocopherol and mitoxantrone (in words): 0.5 mM
Procedure: The inhibitory effect on lipid peroxidation of these compounds were evaluated with rat brain phospholipid liposomes which provide an ideal model system for lipid peroxidation studies by Teng C. M., et. al., Eur. J. Pharmacol., vol. 303, pp. 129-139 (1996).
Assay of Lipid Peroxidation. Rat brain homogenate was prepared from the brains of freshly killed Wistar rats and its peroxidation in the presence of iron ions was measured by the thiobarbituric acid (TBA) method as described. The extent of lipid peroxidation was estimated as thiobarbituric acid-reactive substances and was read at 532 nm in a spectrophotometer (Shimadzu UV-160).

[2] = test system: Human Cervical Carcinoma Cells of ME 180 (GBM8401); assay: Cytotoxic activity test (cell proliferation assay), GBM8401 cells; type: cell-based; conditions: for IC50: Homo sapiens, ME-180, GBM8401 cells, 50% inhibition of cellular growth following 48 h of drug exposure
Description: (§1) We evaluated the ability of the compounds to inhibit the growth of human oral epidermoid carcinoma cells (KB cell line), human cervical carcinoma cells of ME 180 (GBM8401) and Chinese hamster ovary (CHO) cells as normal cells, and lipid peroxidation in model membranes, respectively.
(§2) Cytotoxic Activity Test. Human oral epidermoid carcinoma cells (KB cell line), human cervical carcinoma cells of ME 180 (GBM8401) and Chinese hamster ovary (CHO) cells grown in plateau phase were cultivated, and the cell proliferation assay was performed as previously described. Inhibition of cellular growth was calculated by comparison of the mean values of the test compound (N=3) with the control (N=6-8) activity: (1-test compound/control)×100.

[3] = test system: Chinese Hamster Ovary (CHO) Cells; assay: Cytotoxic activity test (cell proliferation assay), CHO cells as normal cells; type: cell-based; conditions: for IC50: Cricetulus griseus, 50% inhibition of cellular growth following 48 h of drug exposure; for toxicity in CHO compared with mitoxantrone (in words): versus mitoxantrone
Description: as §1, §2

[4] = test system: Human Oral Epidermoid Carcinoma Cells (KB cell line); assay: Cytotoxic activity test (cell proliferation assay), KB cells; type: cell-based; conditions: 50% inhibition of cellular growth following 48 h of drug exposure
Description: as §1, §2

CCN(CC)C1c2cccc(Cl)c2C(=O)c2cccc(Cl)c21 (centres unmarked) [Compound 4a, 10-Diethylamino 1,5-dichloro-9(10 H)-anthracenone]
Inhibition % (0.5 mM) ([1]; Table 2): 12 ± 1.4% | cytotoxicity on GBM in vitro assay (in words) [2]: high cytotoxicity and significant activity | IC50 [2]: 7.5 µM | IC50 [3]: 15 µM | IC50 [4]: 17.2 µM

CCOC1c2cccc(Cl)c2C(=O)c2cccc(Cl)c21 (centres unmarked) [Compound 3b, 10-Ethoxy 1,5-dichloro-9(10 H)-anthracenone]
Inhibition % (0.5 mM) ([1]; Table 2): 7 ± 0.1% | IC50 [2]: 21.8 µM | IC50 [3]: 5.8 µM | IC50 [4]: 6.1 µM

CCCCOC1c2cccc(Cl)c2C(=O)c2cccc(Cl)c21 (centres unmarked) [Compound 3e, 10-(Butyloxy) 1,5-dichloro-9(10 H)-anthracenone]
Inhibition % (0.5 mM) ([1]; Table 2): 31 ± 3.7% | IC50 [2]: 29.5 µM | IC50 [3]: 8 µM | IC50 [4]: 29.5 µM

O=C1c2cccc(Cl)c2C(OCc2ccccc2)c2cccc(Cl)c21 (centres unmarked) [Compound 3g, 10-Benzyloxy 1,5-dichloro-9(10 H)-anthracenone]
Inhibition % (0.5 mM) ([1]; Table 2): 16 ± 1.5% | IC50 [2]: 18.5 µM | IC50 [3]: 24.7 µM | IC50 [4]: 93.4 µM

O=C1c2c(O)ccc(O)c2C(=O)c2c(NCCNCCO)ccc(NCCNCCO)c21 [mitoxantrone-HCl, reference compound]
Inhibition (%) 0.005 mM ([1]; Table 3): 10 ± 1.1% | Inhibition (%) 0.05 mM ([1]; Table 3): 52 ± 3.5% | Inhibition % (0.5 mM) ([1]; Table 2): 64 ± 2.8% | Inhibition % (0.5 mM) ([1]; Table 3): 64 ± 2.1% | Inhibition (%) 5 mM ([1]; Table 3): 100% | IC50 [2]: 1.5 µM | IC50 [3]: 4 µM | IC50 [4]: 1.7 µM

Cc1ccc(NC2c3cccc(Cl)c3C(=O)c3cccc(Cl)c32)cc1 (centres unmarked) [Compound 4d, 10-(p-Toluidino) 1,5-dichloro-9(10 H)-anthracenone]
efficiency in lipid peroxidation inhibition versus ascorbic acid, (+)-α-tocopherol and mitoxantrone (in words) [1]: significantly more efficient | Inhibition (%) 0.005 mM ([1]; Table 3): 33 ± 2.7% | Inhibition (%) 0.05 mM ([1]; Table 3): 94 ± 3.5% | inhibitory effect on lipid peroxidation compared to ascorbic acid, (+)-α-tocopherol and mitoxantrone (in words) [1]: better inhibitory effect | Inhibition % (0.5 mM) ([1]; Table 2): 100% | Inhibition % (0.5 mM) ([1]; Table 3): 100% | Inhibition (%) 5 mM ([1]; Table 3): 100% | cytotoxicity on GBM in vitro assay (in words) [2]: high cytotoxicity and significant activity | IC50 [2]: 4.6 µM | IC50 [3]: 3 µM | toxicity in CHO compared with mitoxantrone (in words) [3]: more toxic in CHO than mitoxantrone | IC50 [4]: 11.3 µM

COC1c2cccc(Cl)c2C(=O)c2cccc(Cl)c21 (centres unmarked) [Compound 3a, 10-Methoxy 1,5-dichloro-9(10 H)-anthracenone]
Inhibition % (0.5 mM) ([1]; Table 2): 7 ± 0.1% | IC50 [2]: 23.5 µM | IC50 [3]: 2.9 µM | toxicity in CHO compared with mitoxantrone (in words) [3]: more toxic in CHO than mitoxantrone | IC50 [4]: 8.8 µM

Cc1ccccc1NC1c2cccc(Cl)c2C(=O)c2cccc(Cl)c21 (centres unmarked) [Compound 4c, 10-(o-Toluidino) 1,5-dichloro-9(10 H)-anthracenone]
Inhibition % (0.5 mM) ([1]; Table 2): 73 ± 3.5% | cytotoxicity on GBM in vitro assay (in words) [2]: high cytotoxicity and significant activity | IC50 [2]: 2.4 µM | IC50 [3]: 3.8 µM | toxicity in CHO compared with mitoxantrone (in words) [3]: more toxic in CHO than mitoxantrone | IC50 [4]: 3.4 µM

CC(C)OC1c2cccc(Cl)c2C(=O)c2cccc(Cl)c21 (centres unmarked) [Compound 3d, 10-(2-Propyloxy) 1,5-dichloro-9(10 H)-anthracenone]
Inhibition % (0.5 mM) ([1]; Table 2): 13 ± 1.3% | IC50 [2]: 65.4 µM | IC50 [3]: 15.2 µM | IC50 [4]: 21.8 µM

Cc1c(C)c2c(c(C)c1O)CC[C@@](C)(CCC[C@H](C)CCC[C@H](C)CCCC(C)C)O2 [(+)-α-tocopherol, reference compound]
Inhibition (%) 0.005 mM ([1]; Table 3): 0% | Inhibition (%) 0.05 mM ([1]; Table 3): 0% | Inhibition % (0.5 mM) ([1]; Table 2): 53 ± 4.4% | Inhibition % (0.5 mM) ([1]; Table 3): 53 ± 1.7% | Inhibition (%) 5 mM ([1]; Table 3): 100%

CC(C)COC1c2cccc(Cl)c2C(=O)c2cccc(Cl)c21 (centres unmarked) [Compound 3f, 10-(iso-Butyloxy) 1,5-dichloro-9(10 H)-anthracenone]
Inhibition % (0.5 mM) ([1]; Table 2): 38 ± 3.1% | IC50 [2]: 43.2 µM | IC50 [3]: 20.1 µM | IC50 [4]: 14.7 µM

CCCOC1c2cccc(Cl)c2C(=O)c2cccc(Cl)c21 (centres unmarked) [Compound 3c, 10-Propyloxy 1,5-dichloro-9(10 H)-anthracenone]
Inhibition % (0.5 mM) ([1]; Table 2): 29 ± 2.5% | IC50 [2]: 11.1 µM | IC50 [3]: 42 µM | IC50 [4]: 1.8 µM

O=C1O[C@H]([C@@H](O)CO)C(O)=C1O [ascorbic acid, reference compound]
Inhibition (%) 0.005 mM ([1]; Table 3): 7 ± 0.5% | Inhibition (%) 0.05 mM ([1]; Table 3): 22 ± 2.2% | Inhibition % (0.5 mM) ([1]; Table 2): 87 ± 3.1% | Inhibition % (0.5 mM) ([1]; Table 3): 87 ± 2.5% | Inhibition (%) 5 mM ([1]; Table 3): 100%

Cc1cccc(NC2c3cccc(Cl)c3C(=O)c3cccc(Cl)c32)c1 (centres unmarked) [Compound 4b, 10-(m-Toluidino) 1,5-dichloro-9(10 H)-anthracenone]
efficiency in lipid peroxidation inhibition versus ascorbic acid, (+)-α-tocopherol and mitoxantrone (in words) [1]: significantly more efficient | Inhibition (%) 0.005 mM ([1]; Table 3): 23 ± 2.4% | Inhibition (%) 0.05 mM ([1]; Table 3): 92 ± 4.1% | inhibitory effect on lipid peroxidation compared to ascorbic acid, (+)-α-tocopherol and mitoxantrone (in words) [1]: better inhibitory effect | Inhibition % (0.5 mM) ([1]; Table 2): 100% | Inhibition % (0.5 mM) ([1]; Table 3): 100% | Inhibition (%) 5 mM ([1]; Table 3): 100% | IC50 [2]: 11.2 µM | IC50 [3]: 6.2 µM | IC50 [4]: 9.5 µM
